These results are taken from patent US4278675A, “Bronchodilating process” (Bristol-Myers Company, priority 1979, dated 1981).

Structures are written as SMILES. Converted amounts (≈) assume the structure as drawn. Where two headings read alike, the source gives them in different places.

As usually defined, the ED50 is the dose at which the effect has come halfway, by size or by number of responders.

Series [1] relates to Arterial blood pressure (ABP). Put plainly: In vivo hypotensive activity: arterial blood pressure (ABP) in anesthetized guinea pig. The following applies: intravenous; for ABP ED20 (dose which reduces arterial blood pressure by 20%): anesthetized guinea pig, hypotensive activity; for Ratio ABP/ITP (hypotensive ED20/bronchodilating ED50): guinea pig, larger ratio = greater separation of bronchodilator activity and hypotensive side effect. How it is done:
(§1) The trachea of anesthetized guinea pig was cannulated and the ITP recorded on a polygraph under artificial ventilation. Arterial blood pressure (ABP; reflecting hypotensive activity) was also measured during the experiment. Either intravenous or intraduodenal routes of administration are used. […] The ratio of hypotensive ED20 /bronchodilating ED50 reflects an assessment of the separation of desirable bronchodilator activity from undesirable cardiovascular (hypotensive) effect in the compounds. The larger the ABP/ITP ratio, the greater separation of bronchodilator activity and hypotensive side effect.

The test system of series [2] is Tracheal chains of guinea pig. Put plainly: In vitro bronchodilator activity, tracheal chains of guinea pig (Magnus method). Particulars: Cavia porcellus, relative to 0.1 mcg./ml. isoproterenol, read-out: EC50 (concentration producing a relaxation which is 50% of the maximum response to 0.1 mcg./ml. of isoproterenol). Format: cell-based. As for the experimental part:
Tracheal chains of guinea pig were prepared by the method of A. Akcasu, Arch. Int. Pharmcodyn. […] The response to each test compound was recorded by the Magnus method and expressed as a percentage of the maximum response obtained with 0.1 mcg./ml. of isoproterenol prior to each experiment.

The test system of series [3] is intratracheal pressure (ITP) in the guinea pig. Put plainly: In vivo bronchodilator activity: decrease in intratracheal pressure (ITP) in anesthetized guinea pig. Particulars: Cavia porcellus, intravenous, read-out: ITP ED50 (dose resulting in a 50% decrease in intratracheal pressure). As for the experimental part:
as §1

The conditions of series [4]: prior art (U.S. Pat. No. 3,930,005), cited from earlier work.

Take `CCCOc1nc(N)c2ncn(Cc3ccccc3)c2n1` [9-Benzyl-2-n-propoxy-9H-adenine]: in series [1], the “ABP ED20 (dose which reduces arterial blood pressure by 20%)” value was 1.7 mg/kg and the “Ratio ABP/ITP (hypotensive ED20/bronchodilating ED50)” value is reported as 2.0. For the same compound, in series [2], the EC50 stood at 0.34 µg/mL (≈ 1.2 µM). The 50% effective dose (ED50) in series [3] was 0.83 mg/kg.

Take `Nc1ncnc2c1ncn2C1CCCCC1` [9-Cyclohexyl-9H-adenine, 9-cyclohexyl-9H-adenine]: in series [1], the “ABP ED20 (dose which reduces arterial blood pressure by 20%)” value is > 3 mg/kg and the “Ratio ABP/ITP (hypotensive ED20/bronchodilating ED50)” value was > 1.2. Besides, the EC50 in series [2] is 0.91 µg/mL (≈ 4.19 µM). Further, in series [4] (listed as 9-cyclohexyl-9H-adenine), the anti-inflammatory activity entry is recorded as “no activity or activity of no practical value”. For the same compound, the anti-inflammatory activity result in series [4] (listed as drawing 2) was “relatively inactive”. Moreover, the median effective dose (ED50) in series [3] came to 0.24 mg/kg.

As for `Cn1c(=O)c2[nH]cnc2n(C)c1=O` [Aminophylline, reference compound], in series [1], the “ABP ED20 (dose which reduces arterial blood pressure by 20%)” value worked out at 1.4 mg/kg.
